This data set in a line: Murine serum stability assay. Type of data set: in vitro ADME, mouse. Particulars: read-out: Murine serum stability assay, T1/2. The procedure:
Serum was drawn from male CD-1 mice by Pharmidex. Lyophilized peptides were solubilized in DMSO and then further diluted into male mouse (CD-1) serum at 37° C. in duplicates. The reaction was incubated at 37° C. and samples extracted at 6 time points: 0, 0.16, 0.5, 1, 3, and 6 hrs. Acetonitrile (ACN) with an internal standard (tolbutamide) was added to stop the incubation. Samples were centrifuged, and the supernatant was analyzed by HPLC-MS/MS for the parent compound.

Setting [1] is: male, CD-1, mouse, mouse serum, cyclic peptides, Table 12.
Where [2] appears, read: mouse, serum, linear peptides, Table 11.
[3] abbreviates: male, CD-1, mouse, mouse serum, linear peptides, Table 11.
Where [4] appears, read: mouse, serum, cyclic peptides, Table 12.

Where two headings read alike, the source gives them in different places. Where a SMILES comes first, the peptide text is derived from it.

Regarding `CCCC[C@@H]1NC(=O)[C@@H](NC(=O)[C@H](CCC(N)=O)NC(=O)[C@H](C)NC(C)=O)CSSC[C@@H](C(=O)N[C@@H](CCCNC(=N)N)C(=O)N[C@@H](CCC(N)=O)C(=O)N[C@H](C(=O)N[C@@H](CC(C)(C)C)C(=O)O)C(C)(C)C)NC(=O)[C@H](C)NC(=O)[C@H](CCCNC(=N)N)NC(=O)[C@H](CC(N)=O)NC(=O)[C@H](CCCNC(=N)N)NC(=O)CNC1=O` [Arb_cyclic_C5], under setting [1], the half-life was 46.1 min.

In the case of `CC(C)C[C@H](NC(=O)[C@H](C)NC(=O)[C@@H]1CCCN1C(=O)[C@H](CC(=O)O)NC(=O)[C@H](CCCNC(=N)N)NC(=O)[C@H](CC(C)C)NC(=O)[C@@H]1CCCN1C(=O)[C@H](C)NC(=O)[C@H](CC(=O)O)NC(=O)[C@H](Cc1c[nH]c2ccccc12)NC(=O)[C@H](CCCNC(=N)N)NC(=O)[C@@H]1CCCN1C(=O)[C@H](C)N)C(=O)N[C@@H](CCCNC(=N)N)C(=O)N[C@@H](CCC(N)=O)C(=O)N[C@@H](CC(C)(C)C)C(=O)N[C@@H](CC(C)(C)C)C(=O)O` [Arb-SAR-P22], the half-life under setting [2] turned out to be 9.95 min. Regarding `CC(C)CC[C@H](NC(=O)[C@H](CCC(N)=O)NC(=O)[C@H](CCCNC(=N)N)NC(=O)[C@H](CC(C)C)NC(=O)[C@H](C)NC(=O)[C@@H]1CCCN1C(=O)[C@H](CC(=O)O)NC(=O)[C@H](CCCNC(=N)N)NC(=O)[C@H](CC(C)C)NC(=O)[C@@H]1CCCN1C(=O)[C@H](C)NC(=O)[C@H](CC(=O)O)NC(=O)[C@H](Cc1c[nH]c2ccccc12)NC(=O)[C@H](CCCNC(=N)N)NC(=O)[C@@H]1CCCN1C(=O)[C@H](C)N)C(=O)N[C@@H](CC(C)(C)C)C(=O)O` [Arb-SAR-P17], under setting [3], the half-life is 12.1 min. `CCCC[C@@H]1NC(=O)[C@H](CCCNC(=N)N)NC(=O)[C@H](CCCNC(=N)N)NC(=O)[C@H](CC(N)=O)NC(=O)[C@H](CCC(=O)O)NC(=O)[C@@H](NC(=O)[C@H](Cc2c[nH]c3ccccc23)NC(=O)[C@H](CCCNC(=N)N)NC(C)=O)CSSC[C@@H](C(=O)N[C@@H](CCCNC(=N)N)C(=O)N[C@@H](CCC(N)=O)C(=O)N[C@H](C(=O)N[C@@H](CC(C)(C)C)C(=O)O)C(C)(C)C)NC(=O)[C@H]([C@@H](C)O)NC(=O)[C@H](Cc2ccccc2)NC1=O` [Arb_cyclic_G23, RWCENRR(Nle)FTCRQ(B13)(F02)]: the half-life under setting [1] came to 39.1 min.

`CC(C)C[C@H](NC(=O)[C@H](C)NC(=O)[C@@H]1CCCN1C(=O)[C@H](CC(=O)O)NC(=O)[C@H](CCCNC(=N)N)NC(=O)[C@H](CC(C)C)NC(=O)[C@@H]1CCCN1C(=O)[C@H](C)NC(=O)[C@H](CC(=O)O)NC(=O)[C@H](Cc1c[nH]c2ccccc12)NC(=O)[C@H](CCCNC(=N)N)NC(=O)[C@@H]1CCCN1C(=O)[C@H](C)N)C(=O)N[C@@H](CCCNC(=N)N)C(=O)N[C@@H](CCC(N)=O)C(=O)N[C@H](C(=O)N[C@@H](CC1CCC1)C(=O)O)C(C)(C)C` [Arb-SAR-Q15]: under setting [3], the half-life was determined as 16.9 min. For the molecule `CCCC[C@H](NC(=O)[C@H](CCCNC(=N)N)NC(C)=O)C(=O)N[C@H]1CSSC[C@@H](C(=O)N[C@@H](CCCNC(=N)N)C(=O)N[C@@H](CCC(N)=O)C(=O)N[C@H](C(=O)N[C@@H](CC(C)(C)C)C(=O)O)C(C)(C)C)NC(=O)[C@H](C)NC(=O)[C@@H]2CCCN2C(=O)[C@H](CO)NC(=O)[C@H](CCCNC(=N)N)NC(=O)[C@H]([C@@H](C)CC)NC(=O)[C@@H]2CCCN2C(=O)CNC1=O` [Arb_cyclic_G10], the half-life under setting [4] is 11.2 min.

As to `CCCC[C@@H]1NC(=O)[C@H](CCCNC(=N)N)NC(=O)[C@H](CCCNC(=N)N)NC(=O)[C@H]([C@@H](C)O)NC(=O)[C@H]([C@@H](C)O)NC(=O)[C@@H](NC(=O)[C@H](CO)NC(=O)[C@H](CCCNC(=N)N)NC(C)=O)CSSC[C@@H](C(=O)N[C@@H](CCCNC(=N)N)C(=O)N[C@@H](CCC(N)=O)C(=O)N[C@H](C(=O)N[C@@H](CC(C)(C)C)C(=O)O)C(C)(C)C)NC(=O)[C@H]([C@@H](C)O)NC(=O)[C@H](C)NC1=O` [Arb_cyclic_G14, RSCTTRR(Nle)ATCRQ(B13)(F02)] (HELM PEPTIDE1{[ac].R.S.C.T.T.R.R.[Nle].A.T.C.R.Q.[CC(C)(C)[C@H](N[*:1])C(=O)[*:2]].[CC(C)(C)C[C@H](N[*:1])C(=O)O]}$PEPTIDE1,PEPTIDE1,4:R3-12:R3$$$V2.0), the half-life under setting [4] amounted to 50.3 min.

Regarding `CC(C)C[C@H](NC(=O)[C@H](C)NC(=O)[C@@H]1CCCN1C(=O)[C@H](CC(=O)O)NC(=O)[C@H](CCCNC(=N)N)NC(=O)[C@H](CC(C)C)NC(=O)[C@@H]1CCCN1C(=O)[C@H](C)NC(=O)[C@H](CC(=O)O)NC(=O)[C@H](Cc1c[nH]c2ccccc12)NC(=O)[C@H](CCCNC(=N)N)NC(=O)[C@@H]1CCCN1C(=O)[C@H](C)N)C(=O)N[C@@H](CCCNC(=N)N)C(=O)N[C@@H](CCC(N)=O)C(=O)N[C@@H](CC1CCC1)C(=O)N[C@@H](CC(C)(C)C)C(=O)O` [Arb-SAR-P24], the half-life under setting [3] stood at 10.1 min. Regarding `CC(=O)N[C@@H](CCCNC(=N)N)C(=O)N[C@@H](CC(=O)O)C(=O)N[C@H]1CSSC[C@@H](C(=O)N[C@@H](CCCNC(=N)N)C(=O)N[C@@H](CCC(N)=O)C(=O)N[C@H](C(=O)N[C@@H](CC(C)(C)C)C(=O)O)C(C)(C)C)NC(=O)[C@@H]2CCCN2C(=O)[C@@H]2CCCN2C(=O)[C@H](C)NC(=O)[C@H](CCCNC(=N)N)NC(=O)[C@H](CC(C)C)NC(=O)[C@H](CO)NC(=O)[C@H](C)NC1=O` [Arb_cyclic_G2], under setting [1], the half-life came to 30.8 min. With `CC(=O)N[C@@H](Cc1c[nH]cn1)C(=O)N[C@@H](CC(N)=O)C(=O)N[C@@H](Cc1ccccc1)C(=O)N[C@@H](Cc1ccc(O)cc1)C(=O)N[C@H]1CSSC[C@@H](C(=O)N[C@@H](CCC(N)=O)C(=O)N[C@@H](CCCNC(=N)N)C(=O)N[C@@H](CCC(N)=O)C(=O)N[C@H](C(=O)N[C@@H](CC(C)(C)C)C(=O)O)C(C)(C)C)NC(=O)[C@H](Cc2c[nH]cn2)NC(=O)[C@H](CCCCN)NC(=O)[C@H](CCCNC(=N)N)NC1=O` [Arb_cyclic_C22], the half-life under setting [4] was determined as 58.3 min. As to `CC(=O)N[C@@H](CCC(=O)O)C(=O)N[C@@H](Cc1c[nH]c2ccccc12)C(=O)N[C@H]1CSSC[C@@H](C(=O)N[C@@H](CCCNC(=N)N)C(=O)N[C@@H](CCC(N)=O)C(=O)N[C@H](C(=O)N[C@@H](CC(C)(C)C)C(=O)O)C(C)(C)C)NC(=O)[C@H]([C@@H](C)O)NC(=O)[C@@H]2CCCN2C(=O)[C@H](Cc2c[nH]cn2)NC(=O)[C@H](CC(N)=O)NC(=O)[C@H](Cc2c[nH]cn2)NC(=O)[C@H](CC(C)C)NC(=O)CNC1=O` [Arb_cyclic_F3], the half-life under setting [1] was 173 min.

`CC(C)CC[C@H](NC(=O)[C@H](CCC(N)=O)NC(=O)[C@H](CCCNC(=N)N)NC(=O)[C@H](CC(C)C)NC(=O)[C@H](C)NC(=O)[C@@H]1CCCN1C(=O)[C@H](CC(=O)O)NC(=O)[C@H](CCCNC(=N)N)NC(=O)[C@H](CC(C)C)NC(=O)[C@@H]1CCCN1C(=O)[C@H](C)NC(=O)[C@H](CC(=O)O)NC(=O)[C@H](Cc1c[nH]c2ccccc12)NC(=O)[C@H](CCCNC(=N)N)NC(=O)[C@@H]1CCCN1C(=O)[C@H](C)N)C(=O)N[C@@H](CC1CCC1)C(=O)O` [Arb-SAR-Q09]: the half-life under setting [2] is 11.5 min.
